Assay results published in the supplement of paper PMC11061612.

How the values were obtained:
Test in all cases: Bliss excess, mean over the matrix (fraction); higher = more synergy
[1] = tested on: BC-1 (B-Cell Non-Hodgkin's Lymphoma)
Summary of the method: (§1)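 After 24 hours at 37°C and 5% CO2 in 1536-well plates, cells in DMEM/F12 or RPMI plus 10% FBS received two-drug dose matrices for 72 hours. Viability came from CellTiter-Glo 2.0 luminescence and was scaled as inhibition, anchored at 0 by vehicle wells and at 1 by blank wells. Combination Emax is taken as the second-highest inhibition in the matrix, and Bliss excess as the observed combination effect less EA + EB − EA·EB, with EA and EB the single-agent effects.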

[2] = tested on: C2BBe1 (Colorectal Carcinoma)
Summary of the method: as §1

[3] = tested on: COR-L105 (Lung Adenocarcinoma)
Summary of the method: as §1

DK-MG (Glioblastoma) = tested on: DK-MG (Glioblastoma)
Summary of the method: as §1

[4] = tested on: Daudi (Burkitt's Lymphoma)
Summary of the method: as §1

[5] = tested on: HT-3 (Cervical Carcinoma)
Summary of the method: as §1

[6] = tested on: IGROV-1 (Ovarian Carcinoma)
Summary of the method: as §1

[7] = tested on: JURL-MK1 (Chronic Myelogenous Leukemia)
Summary of the method: as §1

[8] = tested on: MDA-MB-175-VII (Breast Carcinoma)
Summary of the method: as §1

[9] = tested on: NCI-H1648 (Lung Adenocarcinoma)
Summary of the method: as §1

[10] = tested on: NCI-H1944 (Lung Adenocarcinoma)
Summary of the method: as §1

[11] = tested on: NCI-H2023 (Non-Small Cell Lung Carcinoma)
Summary of the method: as §1

[12] = tested on: NCI-H2170 (Squamous Cell Lung Carcinoma)
Summary of the method: as §1

NCI-H2452 (Mesothelioma) = tested on: NCI-H2452 (Mesothelioma)
Summary of the method: as §1

[13] = tested on: RPMI-8402 (T-Lymphoblastic Leukemia)
Summary of the method: as §1

[14] = tested on: RS4-11 (B-Lymphoblastic Leukemia)
Summary of the method: as §1

SK-MEL-24 (Melanoma) = tested on: SK-MEL-24 (Melanoma)
Summary of the method: as §1

[15] = tested on: SNU-1 (Gastric Carcinoma)
Summary of the method: as §1

[16] = tested on: SW1463 (Colorectal Carcinoma)
Summary of the method: as §1

[17] = tested on: TOV-21G (Ovarian Carcinoma)
Summary of the method: as §1

Row | SMILES | Bliss excess [1] | Bliss excess [2] | Bliss excess [3] | Bliss excess (DK-MG (Glioblastoma)) | Bliss excess [4] | Bliss excess [5] | Bliss excess [6] | Bliss excess [7] | Bliss excess [8] | Bliss excess [9] | Bliss excess [10] | Bliss excess [11] | Bliss excess [12] | Bliss excess (NCI-H2452 (Mesothelioma)) | Bliss excess [13] | Bliss excess [14] | Bliss excess (SK-MEL-24 (Melanoma)) | Bliss excess [15] | Bliss excess [16] | Bliss excess [17]
1 | C=CCn1c(=O)c2cnc(Nc3ccc(N4CCN(C)CC4)cc3)nc2n1-c1cccc(C(C)(C)O)n1 [AZD1775] + C1CN(CCC1(C(=O)N[C@@H](CCO)C2=CC=C(C=C2)Cl)N)C3=NC=NC4=C3C=CN4 [Capivasertib] (first compound max 3 µM, partner max 3 µM) | 0.0279 | -0.077 | -0.0627 | -0.0023 | 0.0313 | -0.0073 | -0.0435 | 0.0007 | 0.0171 | -0.0257 | 0.0207 | -0.003 | -0.0454 | -0.116 | 0.0084 | 0.0201 | 0.0047 | 0.0488 | -0.0888 | -0.0043
2 | CN(CCO)CC[C@H](CSc1ccccc1)Nc1ccc(S(=O)(=O)NC(=O)c2ccc(N3CCC([C@@H](O)c4ccccc4-c4ccc(Cl)cc4)CC3)cc2)cc1S(=O)(=O)C(F)(F)F [AZD4320] + CC(=O)O[C@H]1C(=O)[C@@]2(C)[C@H]([C@H](OC(=O)c3ccccc3)[C@]3(O)C[C@H](OC(=O)[C@H](O)[C@@H](NC(=O)c4ccccc4)c4ccccc4)C(C)=C1C3(C)C)[C@]1(OC(C)=O)CO[C@@H]1C[C@@H]2O [Paclitaxel] (first compound max 1 µM, 7x7, partner max 3 µM) | 0.0045 | – | 0.0195 | – | – | – | – | – | 0.107 | -0.0009 | – | 0.0458 | – | 0.117 | -0.0038 | – | 0.0574 | – | 0.0662 | –
3 | CN(CCO)CC[C@H](CSc1ccccc1)Nc1ccc(S(=O)(=O)NC(=O)c2ccc(N3CCC([C@@H](O)c4ccccc4-c4ccc(Cl)cc4)CC3)cc2)cc1S(=O)(=O)C(F)(F)F [AZD4320] + CCN(CCO)CCCOc1ccc2c(Nc3cc(CC(=O)Nc4cccc(F)c4)[nH]n3)ncnc2c1 [AZD2811] (first compound max 1 µM, 7x7, partner max 1 µM) | 0.091 | -0.0326 | -0.0523 | -0.0213 | 0.0078 | – | 0.0206 | 0.0346 | 0.0289 | 0.0065 | 0.0026 | -0.0636 | -0.051 | -0.0111 | 0.0501 | -0.0011 | -0.0647 | 0.0461 | -0.0238 | -0.0177
4 | CN(CCO)CC[C@H](CSc1ccccc1)Nc1ccc(S(=O)(=O)NC(=O)c2ccc(N3CCC([C@@H](O)c4ccccc4-c4ccc(Cl)cc4)CC3)cc2)cc1S(=O)(=O)C(F)(F)F [AZD4320] + Cc1cc2ncnn2cc1Nc1ncc2c(n1)n(C1CCOCC1)c(=O)n2C [AZD7648] (first compound max 1 µM, 7x7, partner max 10 µM) | 0.0246 | -0.0403 | -0.0146 | -0.0591 | -0.0115 | -0.0403 | 0.0266 | -0.0287 | -0.0145 | -0.0264 | 0.0102 | -0.0585 | -0.006 | -0.011 | 0.0194 | -0.0148 | -0.0429 | 0.0237 | -0.0232 | -0.0221
5 | CN(CCO)CC[C@H](CSc1ccccc1)Nc1ccc(S(=O)(=O)NC(=O)c2ccc(N3CCC([C@@H](O)c4ccccc4-c4ccc(Cl)cc4)CC3)cc2)cc1S(=O)(=O)C(F)(F)F [AZD4320] + Nc1ccn([C@@H]2O[C@H](CO)[C@@H](O)C2(F)F)c(=O)n1 [Gemcitabine] (first compound max 1 µM, 7x7, partner max 0.3 µM) | -0.0074 | – | -0.0111 | – | – | – | – | – | 0.125 | -0.0274 | – | 0.0338 | – | -0.0035 | -0.0457 | – | -0.0082 | – | -0.0192 | –
6 | Cc1cc2ncnn2cc1Nc1ncc2c(n1)n(C1CCOCC1)c(=O)n2C [AZD7648] + C=CCn1c(=O)c2cnc(Nc3ccc(N4CCN(C)CC4)cc3)nc2n1-c1cccc(C(C)(C)O)n1 [AZD1775] (first compound max 10 µM, partner max 1 µM) | 0.004 | -0.0115 | -0.0431 | 0.0398 | -0.0101 | 0.0055 | -0.0431 | -0.0773 | -0.0282 | 0.0026 | -0.0005 | 0.027 | -0.0972 | 0.0647 | -0.0213 | 0.0667 | -0.015 | -0.0572 | -0.0327 | -0.0672
7 | Cc1cc2ncnn2cc1Nc1ncc2c(n1)n(C1CCOCC1)c(=O)n2C [AZD7648] + CCN(CCO)CCCOc1ccc2c(Nc3cc(CC(=O)Nc4cccc(F)c4)[nH]n3)ncnc2c1 [AZD2811] (first compound max 10 µM, 7x7, partner max 1 µM) | 0.035 | 0.0124 | -0.0508 | 0.0189 | 0.0652 | 0.0276 | -0.115 | -0.0046 | -0.0042 | 0.0369 | 0.0709 | -0.0238 | 0.0187 | 0.001 | -0.0443 | -0.0355 | -0.0121 | 0.0214 | -0.0035 | 0.0183
8 | Cc1cc2ncnn2cc1Nc1ncc2c(n1)n(C1CCOCC1)c(=O)n2C [AZD7648] + CN(C)CCCOc1ccc(-c2ccc3ncc4c(c3c2)n(C2CCOCC2)c(=O)n4C)cn1 [AZD0156] (first compound max 10 µM, 7x7, partner max 1 µM) | 0.0465 | -0.0408 | -0.0369 | 0.0157 | 0.0327 | 0.0226 | -0.0328 | -0.0184 | -0.0453 | 0.0176 | -0.0039 | -0.0192 | 0.009 | -0.0457 | 0.0104 | 0.0397 | -0.0325 | 0.01 | 0.0037 | -0.0047
9 | Cc1cc2ncnn2cc1Nc1ncc2c(n1)n(C1CCOCC1)c(=O)n2C [AZD7648] + C[C@@H]1COCCN1C2=NC(=NC(=C2)C3(CC3)[S@](=N)(=O)C)C4=C5C=CNC5=NC=C4 [AZD6738] (first compound max 10 µM, 7x7, partner max 10 µM) | -0.016 | 0.0209 | -0.0511 | 0.0297 | 0.0285 | 0.0076 | -0.08 | -0.0039 | 0.0441 | -0.0379 | 0.0055 | 0.0722 | -0.0153 | 0.0084 | 0.0216 | -0.058 | 0.0523 | -0.013 | 0.0087 | 0.002
10 | Cc1cc2ncnn2cc1Nc1ncc2c(n1)n(C1CCOCC1)c(=O)n2C [AZD7648] + O=C(c1cc(Cc2n[nH]c(=O)c3ccccc23)ccc1F)N1CCN(C(=O)C2CC2)CC1 [Olaparib] (first compound max 10 µM, 7x7, partner max 10 µM) | 0.0015 | -0.0402 | -0.034 | -0.0126 | -0.0336 | -0.0518 | -0.0782 | -0.0253 | -0.0525 | -0.0549 | -0.033 | -0.0892 | -0.0052 | -0.0664 | -0.0158 | -0.0831 | -0.0533 | 0.0384 | -0.0417 | -0.0363
11 | N#Cc1cnc(Nc2cc(NC[C@H]3CNCCO3)c(C(F)(F)F)cn2)cn1 [SRA737] + C=CCn1c(=O)c2cnc(Nc3ccc(N4CCN(C)CC4)cc3)nc2n1-c1cccc(C(C)(C)O)n1 [AZD1775] (first compound max 10 µM, partner max 1 µM) | 0.099 | – | 0.031 | – | – | – | – | – | -0.0073 | -0.0116 | – | 0.0404 | – | -0.0018 | 0.0473 | – | -0.0375 | – | 0.0027 | –
12 | N#Cc1cnc(Nc2cc(NC[C@H]3CNCCO3)c(C(F)(F)F)cn2)cn1 [SRA737] + Nc1ccn([C@@H]2O[C@H](CO)[C@@H](O)C2(F)F)c(=O)n1 [Gemcitabine] (first compound max 10 µM, 7x7, partner max 0.3 µM) | 0.0426 | – | -0.0009 | – | – | – | – | – | -0.0041 | 0.0912 | – | 0.0332 | – | 0.0892 | 0.0312 | – | 0.0307 | – | 0.0633 | –
13 | N#Cc1cnc(Nc2cc(NC[C@H]3CNCCO3)c(C(F)(F)F)cn2)cn1 [SRA737] + O=c1[nH]cc(F)c(=O)[nH]1 [5-Fluorouracil] (first compound max 10 µM, 7x7, partner max 20 µM) | -0.001 | – | -0.0048 | – | – | – | – | – | -0.0189 | -0.0515 | – | 0.0353 | – | 0.0571 | -0.0445 | – | -0.0047 | – | -0.0006 | –
14 | C[C@@H](c1ccc2nccn2c1)n1nnc2ncc(-c3cnn(C)c3)nc21 [Savolitinib] + CN(CC[C@H](CSC1=CC=CC=C1)NC2=C(C=C(C=C2)S(=O)(=O)NC(=O)C3=CC=C(C=C3)N4CCC(CC4)[C@H](C5=CC=CC=C5C6=CC=C(C=C6)Cl)O)S(=O)(=O)C(F)(F)F)CCO [AZD4320] (first compound max 1 µM, 7x7, partner max 1 µM) | – | -0.0348 | – | -0.0585 | -0.0219 | -0.0238 | -0.0735 | -0.0811 | – | – | -0.0288 | – | -0.0589 | – | – | -0.0131 | – | -0.0597 | – | -0.0216
